Source: patent US20100298141A1, “SUBSTITUTED PYRIDINE N-OXIDE HERBICIDES” (E. I. DU PONT DE NEMOURS AND COMPANY, priority 2007, published 2010)

How the values were obtained:
[1] = system: spanishneedles; assay: Test F preemergence test; type: in vivo, Bidens bipinnata; conditions: scale 0 to 100; for Spanishneedles plant response rating: 125 g ai/ha
How it was run: (§1)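 Visual ratings relative to controls, taken after 14 to 21 days in a greenhouse. Test chemicals, formulated in a surfactant-containing non-phytotoxic solvent mixture, were applied preemergence to sown seeds or postemergence to sugarcane plants.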

[2] = system: Russian thistle; assay: Test F preemergence test; type: in vivo, Salsola kali; conditions: scale 0 to 100
From the text: Seeds of plant species selected from bermudagrass (Cynodon dactylon), Surinam grass (Brachiaria decumbens), large crabgrass (Digitaria sanguinalis), green foxtail (Setaria viridis), goosegrass (Eleusine indica), johnsongrass (Sorghum halepense), kochia (Kochia scoparia), pitted morningglory (Ipomoea lacunosa), purple nutsedge (Cyperus rotundus), common ragweed (Ambrosia elation), mustard (Brassica nigra), guineagrass (Panicum maximum), […] (Paspalum dilatatum), barnyardgrass (Echinochloa crus-galli), southern sandbur (Cenchrus echinatus), common sowthistle (Sonchus oleraceous), prickly […] spinosa), Italian ryegrass (Lolium multiflorum), common purslane (Portulaca oleracea), broadleaf signalgrass (Brachiaria platyphylla), common groundsel (Senecio vulgaris), common chickweed (Stellaria media), Virginia dayflower (Commelina virginica), annual bluegrass (Poa annua), naked crabgrass (Digitaria nuda), […] cochinchinensis), quackgrass (Elytrigia repens), Canada horseweed (Conyza canadensis), field bindweed (Convolvulus arvensis), […] (Bidens bipinnata), common mallow (Malva sylvestris), Russian thistle (Salsola kali), and sugarcane (Saccharum officinarum) were planted and treated preemergence with test chemicals formulated in a non-phytotoxic solvent mixture which included a surfactant. At a different time, sugarcane was treated with postemergence applications of some of the test chemicals formulated in the same manner. Plants were approximately 3- to 4-leaf stage for the postemergence treatments. Treated plants and controls were maintained in a greenhouse for 14 to 21 days, after which time all species were compared to controls and visually evaluated. […] A dash (-) response means no test result.

[3] = system: field sandbur; assay: Test G preemergence test; type: in vivo, Cenchrus incertus; conditions: scale 0 to 100
[4] = system: cotton; assay: Test G preemergence test; type: in vivo, Gossypium hirsutum; conditions: scale 0 to 100
[5] = system: winter barley; assay: Test D preemergence test; type: in vivo, Hordeum vulgare
From the text: (§2) Seeds of plant species selected from annual bluegrass (Poa annua), blackgrass (Alopecurus myosuroides), downy bromegrass (Bromus tectorum), field violet (Viola arvensis), green foxtail (Setaria viridis), Italian ryegrass (Lolium multiflorum), littleseed canarygrass (Phalaris minor), spring wheat (Triticum aestivum), wild oat (Avena fatua), […]), winter barley (Hordeum vulgare), and winter wheat (Triticum aestivum) were planted and treated preemergence with test chemicals formulated in a non-phytotoxic solvent mixture which included a surfactant. […] A dash (-) response means no test result.

[6] = system: millet foxtail; assay: Test G preemergence test; type: in vivo, Setaria italica; conditions: scale 0 to 100
[7] = system: littleseed canarygrass; assay: Test D preemergence test; type: in vivo, Phalaris minor; conditions: scale 0 to 100
From the text: as §2

[8] = system: yellow nutsedge; assay: Test G preemergence test; type: in vivo, Cyperus esculentus; conditions: scale 0 to 100
[9] = system: common sowthistle; assay: Test F preemergence test; type: in vivo, Sonchus oleraceous; conditions: scale 0 to 100
How it was run: as §1

[10] = system: canarygrass; assay: Test C postemergence test; type: in vivo, Phalaris minor; conditions: for Plant response rating, Canarygrass: scale 0 to 100, 0 no effect, 100 complete control
Experimental: (§3) At the same time, plants selected from these crop and weed species and also winter barley (Hordeum vulgare), canarygrass (Phalaris minor), and chickweed (Stellaria media) were treated with postemergence applications of some of the test chemicals formulated in the same manner. Plants ranged in height from 2 to 18 cm (1- to 4-leaf stage) for postemergence treatments. […] At time of treatment, test pots were flooded to 3 cm above the soil surface, treated by application of test compounds directly to the paddy water, and then maintained at that water depth for the duration of the test. Treated plants and controls were maintained in a greenhouse for 13 to 15 days, after which time all species were compared to controls and visually evaluated. […] A dash (-) response means no test result.

[11] = system: chickweed; assay: Test C postemergence test; type: in vivo, Stellaria media; conditions: for Plant response rating, Chickweed: scale 0 to 100, 0 no effect, 100 complete control
Experimental: as §3

[12] = system: winter barley; assay: Test C postemergence test; type: in vivo, Hordeum vulgare; conditions: for Plant response rating, Barley: scale 0 to 100, 0 no effect, 100 complete control
Experimental: as §3

[13] = system: windgrass; assay: Test C pre-/postemergence test; type: in vivo, Apera spica-venti; conditions: Postemergence; for Plant response rating, Windgrass: scale 0 to 100, 0 no effect, 100 complete control
From the text: Seeds of plant species selected from blackgrass (Alopecurus myosuroides), downy brome (Bromus tectorum), green foxtail (Setaria viridis), Italian ryegrass (Lolium multiflorum), wheat (Triticum aestivum), wild oat (Avena fatua), catchweed bedstraw (Galium aparine), Russian thistle (Salsola kali), […] (Cynodon dactylon), Surinam grass (Brachiaria decumbens), cocklebur (Xanthium strumarium), corn (Zea mays), crabgrass (Digitaria sanguinalis), woolly cupgrass (Eriochloa villosa), giant foxtail (Setaria faberii), Goosegrass (Eleusin indica), johnsongrass (Sorghum halepense), kochia (Kochia scoparia), lambsquarters (Chenopodium album), morningglory (Ipomoea coccinea), eastern black nightshade (Solanum ptycanthum), yellow nutsedge (Cyperus esculentus), pigweed (Amaranthus retroflexus), common ragweed (Ambrosia elation), soybean (Glycine max), common (oilseed) sunflower (Helianthus annuus), and velvetleaf (Abutilon theophrasti) were planted and treated preemergence with test chemicals formulated in a non-phytotoxic solvent mixture which included a surfactant. At the same time, plants selected from these crop and weed species and also winter barley (Hordeum vulgare), canarygrass (Phalaris minor), and chickweed (Stellaria media) were treated with postemergence applications of some of the test chemicals formulated in the same manner. Plants ranged in height from 2 to 18 cm (1- to 4-leaf stage) for postemergence treatments. […] At time of treatment, test pots were flooded to 3 cm above the soil surface, treated by application of test compounds directly to the paddy water, and then maintained at that water depth for the duration of the test. […] A dash (-) response means no test result.

[14] = Preemergence, 62 g ai/ha, scale 0 to 100
[15] = Preemergence, 125 g ai/ha, scale 0 to 100
[16] = Preemergence, 31 g ai/ha, scale 0 to 100
[17] = preemergence, 250 g ai/ha, scale 0 (no effect) to 100 (complete control)

Structure (SMILES): Cc1cc[n+]([O-])c(S(=O)(=O)C(Cl)c2c(C(F)(F)F)nn(C)c2OCC(F)(F)F)c1 (racemic) [Compound 37]
- Plant response rating, Spanishneedles ([1]; 16 g ai/ha, preemergence): 0
- Spanishneedles plant response rating ([1]; preemergence): 0
- Plant response rating, Spanishneedles ([1]; Preemergence, 62 g ai/ha): 0
- Plant response rating, Spanishneedles ([1]; Preemergence, 31 g ai/ha): 0
- Plant response rating, Russian Thistle ([2]; 16 g ai/ha, preemergence): 0
- Plant response rating, Russian Thistle ([2]; Preemergence, 31 g ai/ha): 0

Structure (SMILES): Cn1nc(C(F)(F)F)c(C(Cl)S(=O)(=O)c2cccc[n+]2[O-])c1Cl (stereo not shown) [Compound 12]
- Plant response rating, Sandbur ([3]; 31 g ai/ha): 85
- Plant response rating, Sandbur ([3]; 62 g ai/ha): 85
- Plant response rating, Sandbur ([3]; 125 g ai/ha): 95
- Plant response rating, Sandbur ([3]; 250 g ai/ha): 100
- Plant response rating, Cotton ([4]; 31 g ai/ha): 0
- Plant response rating, Cotton ([4]; 62 g ai/ha): 0
- Plant response rating, Cotton ([4]; 125 g ai/ha): 0
- Plant response rating, Cotton ([4]; 250 g ai/ha): 0
- Plant response rating, Barley [5, 14]: 0
- Plant response rating, Barley [5, 15]: 0
- Plant response rating, Barley [5, 16]: 0
- Plant response rating, Barley [5, 17]: 0
- Plant response rating, Foxtail, Millet ([6]; 31 g ai/ha): 45
- Plant response rating, Foxtail, Millet ([6]; 62 g ai/ha): 75
- Plant response rating, Foxtail, Millet ([6]; 125 g ai/ha): 100
- Plant response rating, Foxtail, Millet ([6]; 250 g ai/ha): 100
- Plant response rating, Canarygrass ([7]; 31 g ai/ha): 0
- Plant response rating, Canarygrass ([7]; 62 g ai/ha): 0
- Plant response rating, Canarygrass ([7]; 125 g ai/ha): 75
- Plant response rating, Canarygrass ([7]; 250 g ai/ha): 100
- Plant response rating, Nutsedge, Yellow ([8]; 31 g ai/ha): 0
- Plant response rating, Nutsedge, Yellow ([8]; 62 g ai/ha): 0
- Plant response rating, Nutsedge, Yellow ([8]; 125 g ai/ha): 0
- Plant response rating, Nutsedge, Yellow ([8]; 250 g ai/ha): 20

Structure (SMILES): CC(c1c(C(F)(F)F)nn(C)c1OC(F)F)S(=O)(=O)c1cccc[n+]1[O-] (stereo not shown) [Compound 5]
- Plant response rating, Sowthistle ([9]; 8 g ai/ha, preemergence): 100
- Plant response rating, Sowthistle ([9]; 16 g ai/ha, preemergence): 100
- Sowthistle plant response rating ([9]; 62 g ai/ha, Preemergence): 100
- Plant response rating, Sowthistle ([9]; Preemergence, 31 g ai/ha): 100
- Plant response rating (0 to 100), Canarygrass ([10]; 31 g ai/ha): 0
- Plant response rating, Canarygrass ([10]; 62 g ai/ha): 0
- Plant response rating, Canarygrass ([10]; 125 g ai/ha): 0
- Plant response rating, Canarygrass ([10]; 250 g ai/ha): 0
- Plant response rating, Russian Thistle ([2]; 8 g ai/ha, preemergence): 0
- Russian Thistle plant response rating ([2]; 62 g ai/ha, Preemergence): 60
- Plant response rating, Russian Thistle ([2]; Preemergence, 16 g ai/ha): 0
- Plant response rating, Russian Thistle ([2]; Preemergence, 31 g ai/ha): 0
- Plant response rating (0 to 100), Chickweed ([11]; 31 g ai/ha): 0
- Plant response rating, Chickweed ([11]; 62 g ai/ha): 0
- Plant response rating, Chickweed ([11]; 125 g ai/ha): 10
- Plant response rating, Chickweed ([11]; 250 g ai/ha): 85
- Plant response rating (0 to 100), Barley ([12]; 31 g ai/ha): 0
- Plant response rating, Barley ([12]; 62 g ai/ha): 0
- Plant response rating, Barley ([12]; 125 g ai/ha): 20
- Plant response rating, Barley ([12]; 250 g ai/ha): 20
- Plant response rating (0 to 100), Windgrass ([13]; 31 g ai/ha): 30
- Plant response rating (0 to 100), Windgrass ([13]; 62 g ai/ha): 60
- Plant response rating, Windgrass ([13]; 125 g ai/ha): 70
- Plant response rating, Windgrass ([13]; 250 g ai/ha): 75

Structure (SMILES): Cc1cc[n+]([O-])c(S(=O)(=O)C(C)c2c(C(F)(F)F)nn(C)c2Cl)c1 (racemic) [Compound 14]
- Plant response rating, Sandbur ([3]; 31 g ai/ha): 0
- Plant response rating, Sandbur ([3]; 62 g ai/ha): 20
- Plant response rating, Sandbur ([3]; 125 g ai/ha): 45
- Plant response rating, Sandbur ([3]; 250 g ai/ha): 85
- Plant response rating, Cotton ([4]; 31 g ai/ha): 0
- Plant response rating, Cotton ([4]; 62 g ai/ha): 0
- Plant response rating, Cotton ([4]; 125 g ai/ha): 0
- Plant response rating, Cotton ([4]; 250 g ai/ha): 0
- Plant response rating, Barley [5, 14]: 0
- Plant response rating, Barley [5, 15]: 0
- Plant response rating, Barley [5, 16]: 0
- Plant response rating, Barley [5, 17]: 15
- Plant response rating, Foxtail, Millet ([6]; 31 g ai/ha): 0
- Plant response rating, Foxtail, Millet ([6]; 62 g ai/ha): 20
- Plant response rating, Foxtail, Millet ([6]; 125 g ai/ha): 70
- Plant response rating, Foxtail, Millet ([6]; 250 g ai/ha): 100
- Plant response rating, Canarygrass ([7]; 31 g ai/ha): 0
- Plant response rating, Canarygrass ([7]; 62 g ai/ha): 0
- Plant response rating, Canarygrass ([7]; 125 g ai/ha): 15
- Plant response rating, Canarygrass ([7]; 250 g ai/ha): 20
- Plant response rating, Nutsedge, Yellow ([8]; 31 g ai/ha): 0
- Plant response rating, Nutsedge, Yellow ([8]; 62 g ai/ha): 0
- Plant response rating, Nutsedge, Yellow ([8]; 125 g ai/ha): 0
- Plant response rating, Nutsedge, Yellow ([8]; 250 g ai/ha): 65

Structure (SMILES): CC(c1c(C(F)(F)F)nn(C)c1OCC(F)(F)F)S(=O)(=O)c1cccc[n+]1[O-] (racemic) [Compound 33]
- Spanishneedles plant response rating ([1]; preemergence): 65
- Plant response rating, Spanishneedles ([1]; Preemergence, 62 g ai/ha): 35
- Plant response rating, Spanishneedles ([1]; Preemergence, 31 g ai/ha): 35
- Plant response rating, Russian Thistle ([2]; 16 g ai/ha, preemergence): 0

Structure (SMILES): Cn1nc(C(F)(F)F)c(CS(=O)(=O)c2ccc(Cl)c[n+]2[O-])c1OC(F)F [Compound 7]
- Plant response rating, Sandbur ([3]; 31 g ai/ha): 0
- Plant response rating, Sandbur ([3]; 62 g ai/ha): 0
- Plant response rating, Sandbur ([3]; 125 g ai/ha): 0
- Plant response rating, Sandbur ([3]; 250 g ai/ha): 75
- Plant response rating, Cotton ([4]; 31 g ai/ha): 0
- Plant response rating, Cotton ([4]; 62 g ai/ha): 0
- Plant response rating, Cotton ([4]; 125 g ai/ha): 0
- Plant response rating, Cotton ([4]; 250 g ai/ha): 0
- Plant response rating, Barley [5, 14]: 0
- Plant response rating, Barley [5, 15]: 0
- Plant response rating, Barley [5, 16]: 0
- Plant response rating, Barley [5, 17]: 0
- Plant response rating, Foxtail, Millet ([6]; 31 g ai/ha): 0
- Plant response rating, Foxtail, Millet ([6]; 62 g ai/ha): 0
- Plant response rating, Foxtail, Millet ([6]; 125 g ai/ha): 55
- Plant response rating, Foxtail, Millet ([6]; 250 g ai/ha): 55
- Plant response rating, Canarygrass ([7]; 31 g ai/ha): 0
- Plant response rating, Canarygrass ([7]; 62 g ai/ha): 0
- Plant response rating, Canarygrass ([7]; 125 g ai/ha): 20
- Plant response rating, Canarygrass ([7]; 250 g ai/ha): 100
- Plant response rating, Nutsedge, Yellow ([8]; 31 g ai/ha): 0
- Plant response rating, Nutsedge, Yellow ([8]; 62 g ai/ha): 0
- Plant response rating, Nutsedge, Yellow ([8]; 125 g ai/ha): 0
- Plant response rating, Nutsedge, Yellow ([8]; 250 g ai/ha): 0
